Source: patent publication US8288410B2, “3-substituted quinolinium and 7H-indolo[2,3-c]quinolinium salts as new antiinfectives” (Florida Agricultural and Mechanical University, priority 2008, dated 2012)

Assays:
[1] = test system: Candida albicans ATTC 90028; test: Antifungal susceptibility testing, Candida albicans; format: cell-based; settings: Table 1
Protocol: (§1) Using standard susceptibility tests, the compounds of the invention were determined to be active against MRSA, C. neoformans and several other bacteria, fungi and protozoa. More specifically, the antibacterial and antifungal testing was carried out in the following manner. Cryptococcus neoformans ATCC 90113 and MRSA were obtained from the American Type Culture Collection (Manassas. Va.). Several others including Candida albicans ATTC 90028, Aspergillus fumigatus ATCC 90906 and Mycobacterium intracellulare (M. intracellulare) ATCC 23086 were also procured. Susceptibility testing was performed using a modified version of the National Committee for Clinical Laboratory Standards method. M. intracellulare was tested using a modified method of Franzblau, et al., J. Clin. Microbiol., 1998, 36, 362-366. DMSO solutions of samples were serially diluted in saline, and transferred in duplicate to 96 well microplates. Microbial suspensions were diluted in the broth to afford desired colony forming units/mL according to the 0.5 McFarland Standard [C. Albicans: either Saboraud Dextrose broth (SDB) or RPMI 1640, C. neoformans: SDB, A fumigatus: either YM broth (for MICS) or RPMI-1640+5% Alamar Blue.] After adding microbial cultures to the sampled afforded a final volume of 200 μL and final test concentration starting with 20 μg/mL, plates were read prior to and after final incubation using either fluorescence at 544ex/590em (M intracellulare, A. fumigatus) using the Polarstar galaxy reader (Biotek Instruments, Vermont). Growth (saline only), solvent and blank (media only) controls were included on each test plate. Drug controls [Ciprofloxacin (ICN Biomedicals, Ohio) for bacteria and Amphotericin B (ICN Biomedicals, Ohio) for fungi] were included in each assay. Percent growth was calculated and plotted versus test concentration to afford IC50 (sample concentration that affords 50% inhibition or growth of the organism). The minimum inhibitory concentration (MIC) was determined by visually inspecting the plate, and is defined as the lowest test concentration that allows no detectable growth (for Almar Blue assays, no color change from blue to pink).

MRSA = test: Antibacterial susceptibility testing, MRSA; format: cell-based, methicillin resistant Staphylococcus aureus; settings: Table 1
Protocol: as §1

[2] = test system: Cryptococcus neoformans ATCC 90113; test: Antifungal susceptibility testing, Cryptococcus neoformans; format: cell-based; settings: Table 1
Protocol: as §1

[3] = test system: Aspergillus fumigatus ATCC 90906; test: Antifungal susceptibility testing, Aspergillus fumigatus; format: cell-based; settings: Table 1; Aspergillus fumigatus
Protocol: as §1

Structure (SMILES) | Ca IC50 [1] | Ca MFC [1] | Ca MIC [1] | MRS IC50 (MRSA) [µg/mL] | MRS MFC (MRSA) | MRS MIC (MRSA) [µg/mL] | Cn IC50 [2] | Cn MFC [2] | Cn MIC [2] | A fu IC50 [3] | A fu MFC [3] | A fu MIC [3]
[I-].[O-][S+](c1cccc(Br)c1)c1cc2ccccc2[n+](CCCCCc2ccccc2)c1 (stereo not shown) [XYZ-V-29] | — ((-) = >20 μg/mL) | — ((-) = >20 μg/mL) | — ((-) = >20 μg/mL) | 0.90 | — ((-) = >20 μg/mL) | 2.5 | 5.5 µg/mL | 20 µg/mL | 10 µg/mL | — ((-) = >20 μg/mL) | — ((-) = >20 μg/mL) | — ((-) = >20 μg/mL)
[I-].[O-][S+](c1cccc(C(F)(F)F)c1)c1cc2ccccc2[n+](CCCCCc2ccccc2)c1 (stereo not shown) [XYZ-IV-87] | — ((-) = >20 μg/mL) | — ((-) = >20 μg/mL) | — ((-) = >20 μg/mL) | 0.25 | 20 µg/mL | 1.3 | 6.5 µg/mL | 20 µg/mL | 20 µg/mL | — ((-) = >20 μg/mL) | — ((-) = >20 μg/mL) | — ((-) = >20 μg/mL)
[I-].[O-][S+](c1ccc(Br)cc1)c1cc2ccccc2[n+](CCCCCc2ccccc2)c1 (stereo not shown) [XYZ-V-20] | — ((-) = >20 μg/mL) | — ((-) = >20 μg/mL) | — ((-) = >20 μg/mL) | 0.50 | — ((-) = >20 μg/mL) | 2.5 | 7.0 µg/mL | — ((-) = >20 μg/mL) | 10 µg/mL | — ((-) = >20 μg/mL) | — ((-) = >20 μg/mL) | — ((-) = >20 μg/mL)
COc1ccc([S+]([O-])c2cc3ccccc3[n+](CCCCCc3ccccc3)c2)cc1.[I-] (stereo not shown) [XYZ-V-21] | — ((-) = >20 μg/mL) | — ((-) = >20 μg/mL) | — ((-) = >20 μg/mL) | 7.00 | — ((-) = >20 μg/mL) | 20 | — ((-) = >20 μg/mL) | — ((-) = >20 μg/mL) | — ((-) = >20 μg/mL) | — ((-) = >20 μg/mL) | — ((-) = >20 μg/mL) | — ((-) = >20 μg/mL)
[I-].[O-][S+](c1ccc(C(F)(F)F)cc1)c1cc2ccccc2[n+](CCCCCc2ccccc2)c1 (stereo not shown) [XYZ-V-27] | — ((-) = >20 μg/mL) | — ((-) = >20 μg/mL) | — ((-) = >20 μg/mL) | 0.50 | — ((-) = >20 μg/mL) | 1.3 | 6.0 µg/mL | 20 µg/mL | 10 µg/mL | — ((-) = >20 μg/mL) | — ((-) = >20 μg/mL) | — ((-) = >20 μg/mL)
Fc1ccc(Sc2cc3ccccc3[n+](CCCCCc3ccccc3)c2)cc1.[I-] [XYZ-III-63] | 20 µg/mL | — ((-) = >20 μg/mL) | — ((-) = >20 μg/mL) | 5.5 | — ((-) = >20 μg/mL) | 10 | 7.0 µg/mL | — ((-) = >20 μg/mL) | — ((-) = >20 μg/mL) |  | — ((-) = >20 μg/mL) | 
